Source: patent US4920103A, “Modifications of mycinose and 3-O-demethylmycinose in tylosin-type macrolides” (Eli Lilly and Company, priority 1986, dated 1990)
In brackets after ≈: the same amount, converted by molar mass. Several values for one entry are separate records, joined by “and”; a condition that tells them apart may be missing. Equal entries are not always repeated. Where two headings read alike, the source gives them in different places.

How the values were obtained:
[1] = test system: Mycoplasma gallisepticum 15E; assay: MIC, broth-dilution microtiter test, M. gallisepticum 15E; type: cell-based; settings: Mycoplasmoides gallisepticum
Method: (§1) The MIC's in Table II were determined by standard agar-dilution assays. The MIC's in Table III were obtained using conventional broth-dilution microtiter tests.

[2] = test system: Pasteurella hemolytica 22C; assay: MIC, broth-dilution microtiter test, P. hemolytica 22C; type: cell-based
Method: as §1

[3] = test system: Bordetella bronchiseptica; assay: MIC, broth-dilution microtiter test, B. bronchiseptica; type: cell-based
Method: as §1

[4] = test system: Streptococcus pyogenes C203; assay: MIC, standard agar-dilution assay, S. pyogenes C203; type: cell-based
Method: as §1

[5] = test system: Mycoplasma hyopneumoniae S5972; assay: MIC, broth-dilution microtiter test, M. hyopneumoniae S5972; type: cell-based
Method: as §1

[6] = test system: Mycoplasma synoviae 40A; assay: MIC, broth-dilution microtiter test, M. synoviae 40A; type: cell-based
Method: as §1

[7] = test system: Staphylococcus epidermidis EPI1; assay: MIC, standard agar-dilution assay, S. epidermidis EPI1; type: cell-based
Method: as §1

[8] = test system: Streptococcus sp. 19F; assay: MIC, broth-dilution microtiter test, Streptococcus sp. 19F; type: cell-based
Method: as §1

[9] = test system: Haemophilus influenzae C.L.; assay: MIC, standard agar-dilution assay, H. influenzae C.L.; type: cell-based
Method: as §1

[10] = test system: Streptococcus Group D X66; assay: MIC, standard agar-dilution assay, Streptococcus Group D X66; type: cell-based
Method: as §1

[11] = test system: Mycoplasma gallisepticum 36H; assay: MIC, broth-dilution microtiter test, M. gallisepticum 36H; type: cell-based; settings: Mycoplasmoides gallisepticum
Method: as §1

[12] = test system: Streptococcus Group D 2041; assay: MIC, standard agar-dilution assay, Streptococcus Group D 2041; type: cell-based
Method: as §1

[13] = test system: Pasteurella multocida 22A; assay: MIC, broth-dilution microtiter test, P. multocida 22A; type: cell-based
Method: as §1

[14] = test system: Haemophilus influenzae 76; assay: MIC, standard agar-dilution assay, H. influenzae 76; type: cell-based
Method: as §1

[15] = test system: Pseudomonas aeruginosa X239; assay: MIC, standard agar-dilution assay, P. aeruginosa X239; type: cell-based
Method: as §1

[16] = test system: Staphylococcus aureus V41; assay: MIC, standard agar-dilution assay, S. aureus V41; type: cell-based
Method: as §1

[17] = test system: Staphylococcus aureus X400; assay: MIC, standard agar-dilution assay, S. aureus X400; type: cell-based
Method: as §1

[18] = test system: Pasteurella hemolytica 23C; assay: MIC, broth-dilution microtiter test, P. hemolytica 23C; type: cell-based
Method: as §1

[19] = test system: Staphylococcus aureus X1.1; assay: MIC, standard agar-dilution assay, S. aureus X1.1; type: cell-based
Method: as §1

[20] = test system: Pasteurella multocida 17E; assay: MIC, broth-dilution microtiter test, P. multocida 17E; type: cell-based
Method: as §1

[21] = test system: Mycoplasma gallisepticum 29C; assay: MIC, broth-dilution microtiter test, M. gallisepticum 29C; type: cell-based; settings: Mycoplasmoides gallisepticum
Method: as §1

[22] = test system: Staphylococcus aureus; assay: MIC, broth-dilution microtiter test, S. aureus; type: cell-based
Method: as §1

[23] = test system: Klebsiella pneumoniae X68; assay: MIC, standard agar-dilution assay, K. pneumoniae X68; type: cell-based
Method: as §1

[24] = test system: Streptococcus pyogenes C203; assay: Protection of mice experimentally infected with Streptococcus pyogenes C203; type: in vivo; settings: doses given 1 and 4 hours postinfection
Method: The formula 1 compounds have shown in vivo antimicrobial activity against experimentally-induced infections in laboratory animals. When two doses of test compound were administered to mice experimentally infected with Streptococcus pyogenes C203, the activity observed was measured as an ED50 value [effective dose in mg/kg to protect 50% of the test animals: see Warren Wick, et al., J. Bacteriol. 81, 233-235 (1961)].
^a mg/kg × 2; doses given 1 and 4 hours postinfection

[25] = test system: Pasteurella multocida 40G; assay: MIC, broth-dilution microtiter test, P. multocida 40G; type: cell-based
Method: as §1

[26] = test system: Pasteurella hemolytica 41D; assay: MIC, broth-dilution microtiter test, P. hemolytica 41D; type: cell-based
Method: as §1

[27] = test system: Escherichia coli EC14; assay: MIC, standard agar-dilution assay, E. coli EC14; type: cell-based
Method: as §1

[28] = test system: Pasteurella multocida 60A; assay: MIC, broth-dilution microtiter test, P. multocida 60A; type: cell-based
Method: as §1

[29] = test system: Pasteurella multocida 68C; assay: MIC, broth-dilution microtiter test, P. multocida 68C; type: cell-based
Method: as §1

[30] = test system: Mycoplasma hyorhinis 29E; assay: MIC, broth-dilution microtiter test, M. hyorhinis 29E; type: cell-based
Method: as §1

[31] = test system: Streptococcus pneumoniae Park I; assay: MIC, standard agar-dilution assay, S. pneumoniae Park I; type: cell-based
Method: as §1

[32] = test system: Staphylococcus epidermidis 222; assay: MIC, standard agar-dilution assay, S. epidermidis 222; type: cell-based
Method: as §1

[33] = test system: Staphylococcus aureus S13E; assay: MIC, standard agar-dilution assay, S. aureus S13E; type: cell-based
Method: as §1

[34] = Streptococcus pyogenes, C203, oral, read-out: ED50
[35] = Streptococcus pyogenes, C203, sc, subcutaneous, read-out: ED50
[36] = broth-dilution microtiter, read-out: MIC

## CCC1OC(=O)CC(O)C(C)C(OC2OC(C)C(O)C(N(C)C)C2O)C(CCOc2ccccc2)CC(C)C(=O)C=CC(C)=CC1COC1OC(C)CC(OC)C1OC (stereo not drawn) [Compound 11, 4"-Deoxy-20-DH-20-O-phenyl-desmycosin]
[1]
  MIC: 12.5 µg/mL (≈ 15 µM)
[2]
  MIC: 25 µg/mL (≈ 30 µM)
[3]
  MIC: > 50 µg/mL
[4]; Streptococcus pyogenes, C203
  MIC: 0.25 µg/mL (≈ 0.3 µM)
[5]; Mesomycoplasma hyopneumoniae, S5972
  MIC: > 25 µg/mL
[6]; Mycoplasmopsis synoviae, 40A
  MIC: 1.56 µg/mL (≈ 1.87 µM)
[7]
  MIC: 0.25 µg/mL (≈ 0.3 µM)
[8]; Streptococcus, SP.19F
  MIC: 12.5 µg/mL (≈ 15 µM)
[9]
  MIC: 32 µg/mL (≈ 38.4 µM)
[10]
  MIC: 2 µg/mL (≈ 2.4 µM)
[11]
  MIC: 25 µg/mL (≈ 30 µM)
[12]; GROUPD2041
  MIC: 4 µg/mL (≈ 4.8 µM)
[13]
  MIC: 25 µg/mL (≈ 30 µM)
[14]
  MIC: 32 µg/mL (≈ 38.4 µM)
[15]
  MIC: > 128 µg/mL
[16]; Staphylococcus aureus, V41
  MIC: 0.25 µg/mL (≈ 0.3 µM)
[17]
  MIC: 0.25 µg/mL (≈ 0.3 µM)
[18]
  MIC: 25 µg/mL (≈ 30 µM)
[19]
  MIC: 0.25 µg/mL (≈ 0.3 µM)
[20]; Pasteurella multocida, 17E
  MIC: 25 µg/mL (≈ 30 µM)
[21]
  MIC: 0.39 µg/mL (≈ 0.468 µM)
[22]
  MIC: 0.78 µg/mL (≈ 0.935 µM)
[23]
  MIC: > 128 µg/mL
[24]; [34]
  ED50: 34 mg/kg
[24]; [35]
  ED50: 10 mg/kg
[25]
  MIC: 25 µg/mL (≈ 30 µM)
[26]
  MIC: 25 µg/mL (≈ 30 µM)
[27]
  MIC: > 128 µg/mL
[28]
  MIC: 25 µg/mL (≈ 30 µM)
[29]
  MIC: 12.5 µg/mL (≈ 15 µM)
[30]; Mycoplasma, 29E
  MIC: 25 µg/mL (≈ 30 µM)
[31]; Streptococcus pneumoniae
  MIC: 0.25 µg/mL (≈ 0.3 µM)
[32]; agar-dilution, read-out: MIC
  MIC: 0.125 µg/mL (≈ 0.15 µM)
[33]
  MIC: 0.25 µg/mL (≈ 0.3 µM)

## CCC1OC(=O)CC(O)C(C)C(OC2OC(C)C(O)C(N(C)C)C2O)C(CCOc2ccccc2)CC(C)C(=O)C=CC(C)=CC1COC1OC(C)C(OC)C(OC)C1OC (stereo not drawn) [Compound 13, 4"-O-Methyl-20-DH-20-O-phenyl-desmycosin]
[4]; agar-dilution
  MIC: 4 µg/mL (≈ 4.63 µM)
[5]; broth-dilution microtiter
  MIC: > 25 µg/mL
[6]; broth-dilution microtiter
  MIC: 6.25 µg/mL (≈ 7.23 µM)
[8]; broth-dilution microtiter
  MIC: 6.25 µg/mL (≈ 7.23 µM)
[10]; agar-dilution
  MIC: 16 µg/mL (≈ 18.5 µM)
[12]; agar-dilution
  MIC: 16 µg/mL (≈ 18.5 µM)
[16]; agar-dilution, penicillin-resistant strain
  MIC: 2 µg/mL (≈ 2.31 µM)
[20]; broth-dilution microtiter, bovine isolate
  MIC: -- (not active at 50 mcg/mL)
[24]; oral
  ED50: 18.8 mg/kg × 2 and 22.4 mg/kg × 2
[24]; subcutaneous
  ED50: > 10 mg/kg × 2
[30]; broth-dilution microtiter
  MIC: 25 µg/mL (≈ 28.9 µM)
[31]; agar-dilution
  MIC: 4 µg/mL (≈ 4.63 µM)

## CCC1OC(=O)CC(O)C(C)C(OC2OC(C)C(O)C(N(C)C)C2O)C(CCOc2ccccc2)CC(C)C(=O)C=CC(C)=CC1COC1OC(C)C(N)C(OC)C1OC (stereo not drawn) [Compound 21, 4"-Amino-4"-deoxy-20-DH-20-O-phenyl-desmycosin]
[1]; [36]
  MIC: > 50 µg/mL
[2]; [36]
  MIC: 25 µg/mL (≈ 29.4 µM)
[3]; [36]
  MIC: > 50 µg/mL
[4]; Streptococcus pyogenes, C203
  MIC: 0.5 µg/mL (≈ 0.589 µM)
[5]; Mesomycoplasma hyopneumoniae, S5972, broth-dilution microtiter, read-out: MIC
  MIC: 50 µg/mL (≈ 58.9 µM)
[7]
  MIC: 0.5 µg/mL (≈ 0.589 µM)
[8]; Streptococcus, SP.19F, broth-dilution microtiter, read-out: MIC
  MIC: 3.12 µg/mL (≈ 3.67 µM)
[9]
  MIC: 32 µg/mL (≈ 37.7 µM)
[10]
  MIC: 4 µg/mL (≈ 4.71 µM)
[11]; [36]
  MIC: > 50 µg/mL
[12]; GROUPD2041, agar-dilution, read-out: MIC
  MIC: 8 µg/mL (≈ 9.42 µM)
[13]; [36]
  MIC: 12.5 µg/mL (≈ 14.7 µM)
[14]
  MIC: 16 µg/mL (≈ 18.8 µM)
[15]; agar-dilution, read-out: MIC
  MIC: > 128 µg/mL
[16]; Staphylococcus aureus, V41
  MIC: 0.5 µg/mL (≈ 0.589 µM)
[17]
  MIC: 0.25 µg/mL (≈ 0.294 µM)
[18]; [36]
  MIC: 25 µg/mL (≈ 29.4 µM)
[19]
  MIC: 0.25 µg/mL (≈ 0.294 µM)
[20]; Pasteurella multocida, 17E, broth-dilution microtiter, bovine isolate, read-out: MIC
  MIC: 25 µg/mL (≈ 29.4 µM)
[21]; [36]
  MIC: 1.56 µg/mL (≈ 1.84 µM)
[22]
  MIC: 0.39 µg/mL (≈ 0.459 µM)
[23]; agar-dilution, read-out: MIC
  MIC: > 128 µg/mL
[24]; [34]
  ED50: 57.4 mg/kg
[24]; [35]
  ED50: > 10 mg/kg
[25]; [36]
  MIC: 6.25 µg/mL (≈ 7.36 µM)
[26]; [36]
  MIC: 12.5 µg/mL (≈ 14.7 µM)
[27]; agar-dilution, read-out: MIC
  MIC: > 128 µg/mL
[28]; broth-dilution microtiter, avian isolate, read-out: MIC
  MIC: 12.5 µg/mL (≈ 14.7 µM)
[29]; [36]
  MIC: 12.5 µg/mL (≈ 14.7 µM)
[31]; Streptococcus pneumoniae, agar-dilution, read-out: MIC
  MIC: 1 µg/mL (≈ 1.18 µM)
[32]
  MIC: 0.25 µg/mL (≈ 0.294 µM)
[33]
  MIC: 0.25 µg/mL (≈ 0.294 µM)
